Read-outs that look alike come from different tables or passages of the source.
Columns and labels:
[1] = Pharmacokinetics of oral enrofloxacin in healthy pigs with/without verapamil; settings: enrofloxacin 10 mg/kg po alone, mean ± SEM, n = 4
in vivo = settings: pig, plasma, po, 10 mg/kg
porcine P-gp [2] = test: Bidirectional transport assay of enrofloxacin in MDCK-pAbcb1 cell monolayers; assay type: in vitro ADME, pig
Procedure: (§1) Transport assays were carried out as described[45] with minor modifications. MDCK and MDCK-pAbcb1 with a density of 6.6 × 10^4 cells/insert were seeded on a polyethylene terephthalate membrane insert (Millicell cell culture inserts, 1.0 μm pore size, 6.5 mm diameter) in 24-well culture plates. […] Samples were stored at −20 °C. All experiments were conducted in triplicate.
(§2) In brief, plasma was thawed at room temperature and centrifuged at 2,000 × g for 5 min. […] The organic phase was evaporated to dryness under a nitrogen stream and residue was resuspended with mobile phase solution. The samples from the transport assays were directly evaporated to dryness under a nitrogen stream and 40 μL of the mobile phase solution was used to concentrate the samples for 5 times. Twenty microliters of the mixture were injected into the HPLC column (Kromasil C18 columns, […] particle size, 250 × 4.6 mm). The mobile phase composition was 0.1 M phosphoric acid (adjusted pH to 3.5 with triethylamine)/acetonitrile (84:16, v/v) and the flow rate of mobile phase was set to 0.85 mL/min. UV absorbance was measured at 278 nm.
(§3) Apparent permeability coefficients (Papp) were calculated using the following equation: Papp = (dQ/dt)/(A × C0), where A is the area of filter membrane, C0 is the initial concentration of the test drug, dQ is the amount of transported drug, and dt is time elapsed. The efflux ratio (ER) was calculated from (Papp B → A)/(Papp A → B)[59]. Where Papp B → A and Papp A → B are BL to AP and AP to BL apparent permeability coefficients, respectively. The net efflux ratio was calculated using the following equation: Net efflux ratio = efflux ratio in MDCK-pAbcb1/efflux ratio in MDCK.

[3] = Bidirectional transport assay of enrofloxacin in MDCK parental cell monolayers; assay type: in vitro ADME, canine; settings: dog, MDCK cells, enrofloxacin 12 μM alone
Procedure: as §1, §2, §3

porcine P-gp [4] = settings: 5 μM Rho123, during 2 h, p < 0.01
[5] = Tolerability of P-gp inhibitor pre-treatment in piglets; assay type: in vivo; settings: piglets treated with the P-gp inhibitor; dose not given
P-gp = P-gp inhibition (data not shown)

CCN1CCN(c2cc3c(cc2F)c(=O)c(C(=O)O)cn3C2CC2)CC1 [ENRO, enrofloxacin]
AUC (area under the plasma concentration-time curve) [1]: 13.57 ± 0.96 (μg/mL)·h
CL/F (Clearance/F) ([1]; plasma): 0.47 ± 0.01 (mg/kg/h)/(μg/mL)
Ka (absorption rate constant) ([1]; plasma): 0.82 ± 0.11 h⁻¹
T1/2ka (absorption half-life) ([1]; plasma): 0.88 ± 0.20 h
T1/2ke (elimination half-life) ([1]; plasma): 2.50 ± 0.23 h
V/F (volume of distribution/F) ([1]; plasma): 1.69 ± 0.18 (mg/kg)/(μg/mL)
Cmax (in vivo): 3390 ± 120 ng/mL
Tmax (in vivo): 2.01 ± 0.09 h
k el (in vivo): 7.78e-05 s⁻¹
Net efflux ratio (porcine P-gp [2]; enrofloxacin 12 μM alone, efflux ratio in MDCK-pAbcb1 / efflux ratio in MDCK): 2.48
Papp B→A at 120 min, 12 μM (porcine P-gp [2]; pig, MDCK-MDR1, MDCK-pAbcb1 cells, enrofloxacin 12 μM alone, 120 min, mean ± SEM, n = 3): 19.9 ± 1.57 ×10⁻⁶ cm/s
efflux ratio at 120 min, 12 μM (porcine P-gp [2]; pig, MDCK-pAbcb1, MDCK-pAbcb1 cells, enrofloxacin 12 μM alone, Papp B→A / Papp A→B, read-out: Efflux ratio): 2.58 ± 0.25
efflux ratio at 120 min, 12 μM (porcine P-gp [2]; pig, MDCK-pAbcb1, enrofloxacin 12 μM alone, efflux ratio in MDCK-pAbcb1 / efflux ratio in MDCK, read-out: Net efflux ratio): > 2
Papp A→B at 120 min, 12 μM (porcine P-gp [2]; pig, MDCK-pAbcb1 cells, enrofloxacin 12 μM alone, 120 min, mean ± SEM, n = 3): 7.78 ± 1.28 ×10⁻⁶ cm/s
Papp A→B at 120 min, 12 μM ([3]; 120 min, mean ± SEM, n = 3): 12.3 ± 0.59 ×10⁻⁶ cm/s
Papp B→A at 120 min, 12 μM ([3]; 120 min, mean ± SEM, n = 3): 12.9 ± 1.65 ×10⁻⁶ cm/s
efflux ratio at 120 min, 12 μM ([3]; Papp B→A / Papp A→B): 1.04 ± 0.11

COC(=O)c1ccccc1-c1c2ccc(=N)cc-2oc2cc(N)ccc12 [Rho123, rhodamine 123]
Accumulation of Rho123 in MDCK-pAbcb1 cells compared with MDCK cells (porcine P-gp [4]): accumulated less Rho123 than MDCK cells

C/C=C/C[C@@H](C)C(=O)[C@H]1C(=O)N[C@@H](C(C)C)C(=O)N(C)CC(=O)N(C)[C@@H](CC(C)C)C(=O)N[C@@H](C(C)C)C(=O)N(C)[C@@H](CC(C)C)C(=O)N[C@@H](C)C(=O)N[C@H](C)C(=O)N(C)[C@@H](CC(C)C)C(=O)N(C)[C@@H](CC(C)C)C(=O)N(C)[C@@H](C(C)C)C(=O)N1C [PSC-833]
Adverse effect in treated piglets [5]: some animals began vomiting

COc1ccc2cc3[n+](cc2c1OC)CCc1cc2c(cc1-3)OCO2 [Berberine]
Inhibition of P-gp (P-gp): can significantly inhibit P-gp

— paper PMC5004175, “Abcb1 in Pigs: Molecular cloning, tissues distribution, functional analysis, and its effect on pharmacokinetics of enrofloxacin” (Scientific Reports, 2016)
